Drawing on publication PMC3416963 (Biochemistry, 2012), this text covers Ki for two molecules.

This assay addresses LigI (Sphingobium sp. SYK-6, UniProt O87170). Nature of the assay: spectrophotometric PDC hydrolysis at […] nm. It counts as biochemical.

Sequence of LigI (O87170 2-293): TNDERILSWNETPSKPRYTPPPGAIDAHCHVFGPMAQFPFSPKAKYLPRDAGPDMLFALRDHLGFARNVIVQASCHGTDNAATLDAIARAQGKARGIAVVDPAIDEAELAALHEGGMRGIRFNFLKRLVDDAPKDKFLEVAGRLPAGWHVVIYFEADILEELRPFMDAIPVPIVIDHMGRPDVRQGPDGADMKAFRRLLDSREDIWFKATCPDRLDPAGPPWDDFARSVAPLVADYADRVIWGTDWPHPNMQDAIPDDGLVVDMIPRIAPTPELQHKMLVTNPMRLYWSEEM

By Ki is commonly meant a dissociation constant, usually derived from enzyme kinetics or from competition with a known ligand. Molecule `O=C(O)c1cc(O)cc(C(=O)O)c1` [compound 5, 5-hydroxyisophthalic acid] registered an inhibition constant Ki of 40 ± 3 µM.

`O=C(O)c1ccnc(C(=O)O)c1` [compound 2, pyridine-2,4-dicarboxylic acid] came in with an inhibition constant Ki of 75 ± 2 µM. This Ki is about 1.9-fold higher than that of the molecule before.
